According to PMC6981581, “N-(2-Arylmethylthio-4-Chloro-5-Methylbenzenesulfonyl)amide Derivatives as Potential Antimicrobial Agents—Synthesis and Biological Studies” (International Journal of Molecular Sciences, 2019):
≈ marks a conversion by molar mass, not a printed value. Where “and” joins values, the source holds several entries; their conditions need not be identical. Equal values may be shown once. Read-outs that look alike come from different tables or passages of the source.

What was measured:
Assay type in all cases: cell-based
[1] = tested on: Candida albicans ATCC 10231; assay: Broth dilution MIC/MFC, reference fungal strain; settings: for MFC/MIC: C. a. ATCC 10231; for MFC / MIC: Candida albicans, ATCC10231, C. albicans ATCC 10231; for MFC: read-out: MFC; for MIC: read-out: MIC
Procedure: (§1) The tests were carried out using a serial dilution method, allowing the determination of MIC (minimal concentration inhibiting bacterial growth), MBC (minimal bactericidal concentration), and MFC (minimal fungicidal concentration) values.
(§2) Antimicrobial activity was tested using the following reference strains: Staphylococcus aureus ATCC 6538 (MSSA), Staphylococcus aureus ATCC 43300 (MRSA), Staphylococcus epidermidis PCM 2118, Escherichia coli ATCC 11229, Pseudomonas aeruginosa ATCC 15442, Proteus vulgaris NCTC 4635, Enterococcus faecalis ATCC 11420, and Candida albicans ATCC 10231.
(§3) A broth dilution method was used to determine minimal inhibitory concentration (MIC) for tested compounds as recommended by Clinical Laboratory Standards Institute (CLSI) guidelines. Investigated compounds were diluted in Mueller Hinton Broth 2 (Sigma-Aldrich Co., St. Louis, MO, USA) in polypropylene 96-well plates and initial inoculum 5 × 10^5 cfu/mL were incubated at 37 °C for 18 h. MIC was taken as the lowest drug concentration at which an observable growth was inhibited. […] The loopful (10 µL) of the tested sample was transferred to Tryptic Soy Agar (TSA, Becton-Dickinson, Franklin Lakes, NJ, USA) and incubated at 37 °C for 48 h. […] Drug Solutions were made fresh on the day of the assay. All experiments were performed in triplicate.

[2] = tested on: Staphylococcus aureus ATCC 6538 (MSSA); assay: Broth dilution MIC/MBC, reference strain; settings: for MBC/MIC: S. a. ATCC 6538; for MBC / MIC: Staphylococcus aureus, S. aureus ATCC 6538; for MBC: read-out: MBC; for MIC: read-out: MIC
Procedure: as §1, §2, §3

[3] = tested on: Proteus vulgaris NCTC 4635; assay: Broth dilution MIC/MBC, reference strain; settings: for MBC/MIC: P. v. NCTC 4635; for MBC / MIC: Proteus vulgaris, NCTC4635, P. vulgaris NCTC 4635; for MBC: read-out: MBC; for MIC: read-out: MIC
Procedure: as §1, §2, §3

[4] = tested on: Staphylococcus aureus ATCC 43300 (MRSA); assay: Broth dilution MIC/MBC, reference strain; settings: for MBC/MIC: S. a. ATCC 43300; for MBC / MIC: Staphylococcus aureus, S. aureus ATCC 43300; for MBC: read-out: MBC; for MIC: read-out: MIC
Procedure: as §1, §2, §3

[5] = tested on: Pseudomonas aeruginosa ATCC 15442; assay: Broth dilution MIC/MBC, reference strain; settings: for MBC/MIC: P. a. ATCC 15442; for MBC / MIC: Pseudomonas aeruginosa, ATCC15442, P. aeruginosa ATCC 15442; for MBC: read-out: MBC; for MIC: read-out: MIC
Procedure: as §1, §2, §3

[6] = tested on: Escherichia coli ATCC 11229; assay: Broth dilution MIC/MBC, reference strain; settings: for MBC/MIC: E. c. ATCC 11229; for MBC / MIC: Escherichia coli, ATCC11229, E. coli ATCC 11229; for MBC: read-out: MBC; for MIC: read-out: MIC
Procedure: as §1, §2, §3

[7] = tested on: Enterococcus faecalis ATCC 11420; assay: Broth dilution MIC/MBC, reference strain; settings: for MBC/MIC: E. f. ATCC 11420; for MBC / MIC: Enterococcus faecalis, ATCC11420, E. faecalis ATCC 11420; for MBC: read-out: MBC; for MIC: read-out: MIC
Procedure: as §1, §2, §3

[8] = tested on: Staphylococcus epidermidis PCM 2118; assay: Broth dilution MIC/MBC, reference strain; settings: for MBC/MIC: S. e. PCM 2118; for MIC: read-out: MIC
Procedure: as §1, §2, §3

[9] = tested on: HaCaT cell line (human keratinocyte); assay: MTT cell viability assay; settings: MTT assay, 72 h incubation, mean ± SD, read-out: IC50 HaCaT
MCF-7 (breast cancer) = assay: MTT cell viability assay; settings: Homo sapiens, MCF7, 72 h incubation, mean ± SD
Procedure: (§4) Analysis was performed using the MTT test and 72 h of incubation.
(§5) All chemicals were obtained from Sigma-Aldrich (St. Louis, MO, USA). The MCF-7 and HeLa cell lines were purchased from Cell Lines Services (Eppelheim, Germany), the HCT-116 cell line was purchased from ATCC (ATCC-No: CCL-247). Cells were cultured in Dulbecco’s modified Eagle’s medium (DMEM) supplemented with 10% fetal bovine serum, 2 mM glutamine, 100 units/mL penicillin, and 100 μg/mL streptomycin. Cultures were held in an incubator (Heraceus, HeraCell) in a humidified atmosphere with 5% CO2 at 37 °C.
(§6) Cell viability was evaluated using the MTT (3-(4,5-dimethylthiazol-2-yl)-2,5-diphenyltetrazolium bromide) assay. Stock solutions of the studied compounds were obtained in 100% DMSO. […] Cells at a density of 5 × 10^3 cells/well, seeded in 96-well plates, were treated for 72 h with the tested compounds in the concentration range 1–100 μM (1, 10, 25, 50 and 100 μM). After treatment, cells were incubated for 2 h with MTT (0.5 mg/mL) at 37 °C. Cells were lysed with DMSO and the absorbance of the formazan solution was measured at 550 nm with a plate reader (1420 multilabel counter, Victor, Jügesheim, Germany). Values are expressed as the mean ± SD of at least three independent experiments conducted in triplicate.

HCT-116 (colon cancer) = assay: MTT cell viability assay; settings: Homo sapiens, 72 h incubation, mean ± SD
Procedure: as §4, §5, §6

HeLa (cervical cancer) = assay: MTT cell viability assay; settings: Homo sapiens, 72 h incubation, mean ± SD
Procedure: as §4, §5, §6

[10] = Staphylococcus epidermidis, PCM2118, S. epidermidis PCM 2118, read-out: MBC
[11] = Staphylococcus epidermidis, PCM2118, S. epidermidis PCM 2118

| Compound | MFC/MIC [1] | MFC [1] [µg/mL] | MIC [1] [µg/mL] | MBC/MIC [2] | MBC [2] [µg/mL] | MIC [2] [µg/mL] | MBC/MIC [3] | MBC [3] [µg/mL] | MIC [3] [µg/mL] | MBC/MIC [4] | MBC [4] [µg/mL] | MIC [4] [µg/mL] | MBC/MIC [5] | MBC [5] [µg/mL] | MIC [5] [µg/mL] | MBC/MIC [6] | MBC [6] [µg/mL] | MIC [6] [µg/mL] | MBC/MIC [7] | MBC [7] [µg/mL] | also measured |
| --- | --- | --- | --- | --- | --- | --- | --- | --- | --- | --- | --- | --- | --- | --- | --- | --- | --- | --- | --- | --- | --- |
| Cc1cc(S(=O)(=O)NC(=O)CCC2CCCCC2)c(SCc2ccc(C(F)(F)F)cc2)cc1Cl [Compound 9, N-[4-Chloro-5-methyl-2-(4-trifluoromethylbenzylthio)benzenesulfonyl]-3-cyclohexylpropanamide] | 2 | 128 (≈ 240 µM) | 64 (≈ 120 µM) | >16 | > 128 | 8 (≈ 15 µM) | >2 | > 128 | 64 (≈ 120 µM) | >32 | > 128 | 4 (≈ 7.49 µM) | >1 | > 128 | 128 (≈ 240 µM) | >1 | > 128 | 128 (≈ 240 µM) | >16 | > 128 | MIC [7]: 8 µg/mL (≈ 15 µM); MBC/MIC [8]: 2; MBC ([8]; S. epidermidis PCM 2118): 8 µg/mL (≈ 15 µM); MBC [8, 10]: 4 to 16 µg/mL (≈ 7.49 to 30 µM); MIC [8, 11]: 4 µg/mL (≈ 7.49 µM); IC50 [9]: 40 µg/mL and 74 µM; IC50 (MCF-7 (breast cancer)): 65 ± 3 µM; IC50 (HCT-116 (colon cancer)): 78 ± 2 µM; IC50 (HeLa (cervical cancer)): 90 ± 4 µM |
| Cc1cc(S(=O)(=O)NC(=O)CCC2CCCCC2)c(SCc2cccc3ccccc23)cc1Cl [Compound 11, N-[4-Chloro-5-methyl-2-(naphthalen-1-ylmethylthio)benzenesulfonyl]-3-cyclohexylpropanamide] | 2 | 128 (≈ 248 µM) | 64 (≈ 124 µM) | >16 | > 128 | 8 (≈ 15.5 µM) | >1 | > 128 | > 128 | >16 | > 128 | 8 (≈ 15.5 µM) | >1 | > 128 | 128 (≈ 248 µM) | >1 | > 128 | 128 (≈ 248 µM) | >16 | > 128 | MIC [7]: 8 µg/mL (≈ 15.5 µM); MBC/MIC [8]: >32; MBC [8, 10]: > 128 µg/mL; MIC [8, 11]: 4 µg/mL (≈ 7.75 µM); IC50 [9]: 42 µg/mL and 81 µM; IC50 (MCF-7 (breast cancer)): 82 ± 4 µM; IC50 (HCT-116 (colon cancer)): 66 ± 1 µM; IC50 (HeLa (cervical cancer)): 42 ± 2 µM |
| Cc1cc(S(=O)(=O)NC(=O)CCC2CCCCC2)c(SCc2ccc3ccccc3c2)cc1Cl [Compound 12, N-[4-Chloro-5-methyl-2-(naphthalen-2-ylmethylthio)benzenesulfonyl]-3-cyclohexylpropanamide] | 2 | 128 (≈ 248 µM) | 64 (≈ 124 µM) | 16 | 128 (≈ 248 µM) | 8 (≈ 15.5 µM) | >1 | > 128 | 128 (≈ 248 µM) | >16 | > 128 | 8 (≈ 15.5 µM) | 1 | 128 (≈ 248 µM) | 128 (≈ 248 µM) | >1 | > 128 | 128 (≈ 248 µM) | >4 | > 128 | MIC [7]: 32 µg/mL (≈ 62 µM); MBC/MIC [8]: 32; MBC [8, 10]: 128 µg/mL (≈ 248 µM); MIC [8, 11]: 4 µg/mL (≈ 7.75 µM); IC50 [9]: 47 µg/mL and 92 µM; IC50 (MCF-7 (breast cancer)): 94 ± 3 µM; IC50 (HCT-116 (colon cancer)): 77 ± 3 µM; IC50 (HeLa (cervical cancer)): 88 ± 3 µM |
| Cc1cc(S(=O)(=O)NC(=O)C=Cc2ccccc2)c(SCc2ccc(C(F)(F)F)cc2)cc1Cl [Compound 14, N-[4-Chloro-5-methyl-2-(4-trifluoromethylbenzylthio)benzenesulfonyl]cinnamamide] | 2 | 128 (≈ 243 µM) | 64 (≈ 122 µM) | 16 | 128 (≈ 243 µM) | 8 (≈ 15.2 µM) | >1 | > 128 | 128 (≈ 243 µM) | 16 | 128 (≈ 243 µM) | 8 (≈ 15.2 µM) | 2 | 128 (≈ 243 µM) | 64 (≈ 122 µM) | 1 | 128 (≈ 243 µM) | 128 (≈ 243 µM) | >8 | > 128 | MIC [7]: 16 µg/mL (≈ 30.4 µM); MBC/MIC [8]: 2; MIC [8, 11]: 8 µg/mL (≈ 15.2 µM); IC50 [9]: 147 µg/mL and 280 µM; IC50 (MCF-7 (breast cancer)): 73 ± 1 µM; IC50 (HCT-116 (colon cancer)): 81 ± 1 µM; IC50 (HeLa (cervical cancer)): 96 ± 5 µM |
